Test results published in patent US20260092071A1, “COMPOUNDS AND COMPOSITIONS AS SMARCA2/4 DEGRADERS AND USES THEREOF” (REGENTS OF THE UNIVERSITY OF MICHIGAN, priority 2022, published 2026).

Columns and labels:
SMARCA2 = SMARCA2 (Homo sapiens, UniProt P51531); assay: HiBit assay in engineered HT1080 CRISPR knock-in cell, 6 hrs (B series), SMARCA2; format: cell-based; details: 6 hrs incubation; for DC50: read-out: SMARC A2 HT1080 HiBit DC50; for Dmax: HT-1080, HT1080 CRISPR knock-in cells, read-out: SMARC A2 HT1080 HiBit Dmax (%)
Sequence of SMARCA2 (P51531 whole entry): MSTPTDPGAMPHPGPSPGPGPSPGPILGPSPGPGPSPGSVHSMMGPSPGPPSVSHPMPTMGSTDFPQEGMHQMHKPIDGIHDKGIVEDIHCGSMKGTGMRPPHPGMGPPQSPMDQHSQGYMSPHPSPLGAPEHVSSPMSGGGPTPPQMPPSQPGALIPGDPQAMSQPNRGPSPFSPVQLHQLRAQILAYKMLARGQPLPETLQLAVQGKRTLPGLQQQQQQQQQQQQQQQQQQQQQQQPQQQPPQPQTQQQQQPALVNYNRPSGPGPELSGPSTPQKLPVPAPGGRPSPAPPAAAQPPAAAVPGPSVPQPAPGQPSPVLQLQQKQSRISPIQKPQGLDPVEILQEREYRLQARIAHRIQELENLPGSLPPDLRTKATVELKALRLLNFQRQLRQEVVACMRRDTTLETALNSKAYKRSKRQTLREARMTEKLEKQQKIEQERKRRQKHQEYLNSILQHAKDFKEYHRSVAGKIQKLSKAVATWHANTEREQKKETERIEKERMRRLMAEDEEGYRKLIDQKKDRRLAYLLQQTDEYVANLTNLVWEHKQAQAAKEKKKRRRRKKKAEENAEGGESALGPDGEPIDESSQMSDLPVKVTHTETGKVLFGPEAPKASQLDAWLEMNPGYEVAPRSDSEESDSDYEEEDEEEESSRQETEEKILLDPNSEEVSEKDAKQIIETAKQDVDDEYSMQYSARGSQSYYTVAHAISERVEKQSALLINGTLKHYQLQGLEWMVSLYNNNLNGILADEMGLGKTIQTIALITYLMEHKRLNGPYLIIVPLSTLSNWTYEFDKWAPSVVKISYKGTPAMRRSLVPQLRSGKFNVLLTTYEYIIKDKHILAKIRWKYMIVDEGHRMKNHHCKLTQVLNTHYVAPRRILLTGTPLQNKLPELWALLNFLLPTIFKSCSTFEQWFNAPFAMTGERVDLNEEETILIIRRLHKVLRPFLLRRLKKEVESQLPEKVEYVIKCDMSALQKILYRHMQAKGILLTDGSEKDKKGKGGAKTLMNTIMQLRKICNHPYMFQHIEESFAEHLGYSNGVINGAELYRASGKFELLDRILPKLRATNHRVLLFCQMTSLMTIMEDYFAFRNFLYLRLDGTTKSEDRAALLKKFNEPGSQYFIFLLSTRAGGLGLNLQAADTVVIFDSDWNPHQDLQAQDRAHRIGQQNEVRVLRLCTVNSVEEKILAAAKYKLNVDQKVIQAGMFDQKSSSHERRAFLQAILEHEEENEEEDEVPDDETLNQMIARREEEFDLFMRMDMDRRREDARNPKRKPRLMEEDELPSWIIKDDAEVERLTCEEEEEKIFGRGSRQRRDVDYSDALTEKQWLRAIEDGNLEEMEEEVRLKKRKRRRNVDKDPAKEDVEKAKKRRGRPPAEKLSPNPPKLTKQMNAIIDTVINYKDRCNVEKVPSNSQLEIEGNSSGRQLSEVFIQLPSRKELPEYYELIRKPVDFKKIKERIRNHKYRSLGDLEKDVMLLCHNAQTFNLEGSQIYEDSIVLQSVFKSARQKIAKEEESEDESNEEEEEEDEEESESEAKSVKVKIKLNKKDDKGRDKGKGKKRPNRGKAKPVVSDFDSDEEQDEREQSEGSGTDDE
How it was run: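 Remaining SMARCA2 protein measured as HiBiT luminescence after cell lysis with LgBiT plus lytic substrate. Engineered HT1080 knock-in cells (2000/well) were first treated 6 h at 37 °C with compound at a final 0.1% DMSO.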

SMARCA4 = SMARCA4 (Homo sapiens, UniProt P51532); assay: HiBit assay in engineered HT1080 CRISPR knock-in cell, 6 hrs (B series), SMARCA4; format: cell-based; details: 6 hrs incubation; for DC50: read-out: SMARC A4 HT1080 HiBit DC50; for Dmax: HT-1080, HT1080 CRISPR knock-in cells, read-out: SMARC A4 HT1080 HiBit Dmax(%)
Sequence of SMARCA4 (P51532 whole entry): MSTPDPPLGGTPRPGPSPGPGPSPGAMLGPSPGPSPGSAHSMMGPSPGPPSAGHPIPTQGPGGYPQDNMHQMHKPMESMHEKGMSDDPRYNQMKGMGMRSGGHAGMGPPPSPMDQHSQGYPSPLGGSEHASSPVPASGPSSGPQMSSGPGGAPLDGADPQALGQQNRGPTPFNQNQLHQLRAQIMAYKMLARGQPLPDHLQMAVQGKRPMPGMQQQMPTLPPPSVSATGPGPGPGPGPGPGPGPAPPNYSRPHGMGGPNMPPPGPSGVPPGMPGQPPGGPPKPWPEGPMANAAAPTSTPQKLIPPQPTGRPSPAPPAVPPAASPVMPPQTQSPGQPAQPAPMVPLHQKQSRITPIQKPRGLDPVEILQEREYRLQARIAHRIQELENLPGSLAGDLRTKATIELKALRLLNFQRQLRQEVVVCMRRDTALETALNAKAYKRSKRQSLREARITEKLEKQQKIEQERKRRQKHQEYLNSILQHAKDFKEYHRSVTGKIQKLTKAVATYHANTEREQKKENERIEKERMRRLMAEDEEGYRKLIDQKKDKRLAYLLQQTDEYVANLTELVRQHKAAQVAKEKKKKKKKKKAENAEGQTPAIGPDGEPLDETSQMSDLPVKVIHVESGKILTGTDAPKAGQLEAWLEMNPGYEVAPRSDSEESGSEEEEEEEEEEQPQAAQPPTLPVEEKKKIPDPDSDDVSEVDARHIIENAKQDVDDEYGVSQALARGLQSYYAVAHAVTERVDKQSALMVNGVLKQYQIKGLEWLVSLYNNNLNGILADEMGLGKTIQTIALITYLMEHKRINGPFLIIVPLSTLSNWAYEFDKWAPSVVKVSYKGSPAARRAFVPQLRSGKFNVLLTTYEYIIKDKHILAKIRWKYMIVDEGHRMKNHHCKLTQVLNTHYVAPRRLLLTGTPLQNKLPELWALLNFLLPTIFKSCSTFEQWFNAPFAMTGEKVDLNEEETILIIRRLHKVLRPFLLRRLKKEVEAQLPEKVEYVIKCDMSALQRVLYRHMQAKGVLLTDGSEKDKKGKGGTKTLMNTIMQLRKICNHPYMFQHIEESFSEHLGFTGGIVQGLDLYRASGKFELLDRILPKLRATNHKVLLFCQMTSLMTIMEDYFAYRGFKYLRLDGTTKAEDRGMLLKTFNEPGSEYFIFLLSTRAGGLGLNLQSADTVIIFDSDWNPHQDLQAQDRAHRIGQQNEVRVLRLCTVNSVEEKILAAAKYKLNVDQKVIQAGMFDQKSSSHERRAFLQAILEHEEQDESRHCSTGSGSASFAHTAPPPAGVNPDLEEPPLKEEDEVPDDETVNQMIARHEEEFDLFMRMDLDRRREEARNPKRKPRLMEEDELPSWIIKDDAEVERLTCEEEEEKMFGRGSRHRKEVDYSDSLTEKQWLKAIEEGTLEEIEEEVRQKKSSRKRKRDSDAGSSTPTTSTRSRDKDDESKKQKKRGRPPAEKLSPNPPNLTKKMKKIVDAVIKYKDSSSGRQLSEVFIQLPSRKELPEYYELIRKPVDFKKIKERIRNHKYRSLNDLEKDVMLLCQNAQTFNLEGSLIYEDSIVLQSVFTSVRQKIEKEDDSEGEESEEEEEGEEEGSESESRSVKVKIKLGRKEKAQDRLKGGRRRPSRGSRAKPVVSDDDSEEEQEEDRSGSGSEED
How it was run: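 Protein abundance is measured in HiBiT-tagged HT1080 CRISPR knock-in cells after a 6 hr compound treatment (0.1% DMSO) by lytic Nano-Glo HiBiT luminescence.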

| SMILES | DC50 (SMARCA2; HT1080 CRISPR knock-in cells) | Dmax (SMARCA2) | DC50 (SMARCA4; HT1080 CRISPR knock-in cells) | Dmax (SMARCA4) | SMARC A2 HT1080 HiBit Dmax (%) (SMARCA2; HT1080 CRISPR knock-in cells) | SMARC A4 HT1080 HiBit Dmax(%) (SMARCA4; HT1080 CRISPR knock-in cells) |
| --- | --- | --- | --- | --- | --- | --- |
| Cc1ncsc1-c1ccc([C@H](CC(=O)NCC2CCC(N3CCC(c4ccc5c(c4)-n4c(nc(=O)c6c(Cl)cccc64)C5(C)C)CC3)CC2)NC(=O)[C@@H]2C[C@@H](O)CN2C(=O)[C@@H](NC(=O)C2(F)CC2)C(C)(C)C)cc1 (stereo partly drawn) [Compound B53, (2S,4R)-N-((S)-3-(((4-(4-(4-chloro-7,7-dimethyl-5-oxo-5,7-dihydroindolo[1,2-a]quinazolin-10-yl)piperidin-1-yl)cyclohexyl)methyl)amino)-1-(4-(4-methylthiazol-5-yl)phenyl)-3-oxopropyl)-1-((S)-2-(1-fluorocyclopropane-1-carboxamido)-3,3-dimethylbutanoyl)-4-hydroxypyrrolidine-2-carboxamide] | 0.1 to 0.5 µM | 70 to 90% | 0.1 to 0.5 µM | 50 to 69% |  |  |
| Cc1ncsc1-c1ccc([C@H](CC(=O)NCC2CCC(N3CCC(c4ccc5c(c4)-n4c(nc(=O)c6c(Cl)cccc64)C5(C)C)CC3)CC2)NC(=O)[C@@H]2C[C@@H](O)CN2C(=O)[C@@H](NC(=O)C2(F)CC2)C(C)(C)C)cc1 (stereo partly drawn) [Compound B54, (2S,4R)-N-((S)-3-(((4-(4-(4-chloro-7,7-dimethyl-5-oxo-5,7-dihydroindolo[1,2-a]quinazolin-10-yl)piperidin-1-yl)cyclohexyl)methyl)amino)-1-(4-(4-methylthiazol-5-yl)phenyl)-3-oxopropyl)-1-((S)-2-(1-fluorocyclopropane-1-carboxamido)-3,3-dimethylbutanoyl)-4-hydroxypyrrolidine-2-carboxamide] | 0.1 to 0.5 µM |  | 0.1 to 0.5 µM |  | D (D (<50% degradation)) | D (D (<50% degradation)) |
| Cc1ncsc1-c1ccc([C@H](C)NC(=O)[C@@H]2C[C@@H](O)CN2C(=O)[C@H](C(C)C)n2cc(CCCN3CCC(c4ccc5c(c4)-n4c(nc(=O)c6c(Cl)cccc64)C5(C)C)CC3)nn2)cc1 [Compound B58, (2S,4R)-1-((S)-2-(4-(3-(4-(4-chloro-7,7-dimethyl-5-oxo-5,7-dihydroindolo[1,2-a]quinazolin-10-yl)piperidin-1-yl)propyl)-1H-1,2,3-triazol-1-yl)-3-methylbutanoyl)-4-hydroxy-N-((S)-1-(4-(4-methylthiazol-5-yl)phenyl)ethyl)pyrrolidine-2-carboxamide] | < 0.1 µM | > 90% | < 0.1 µM | 70 to 90% |  |  |
| Cc1ncsc1-c1ccc([C@H](C)NC(=O)[C@@H]2C[C@@H](O)CN2C(=O)[C@@H](c2cc(OCCn3cc(-c4ccc5c(c4)-n4c(nc(=O)c6c(Cl)cccc64)C5(C)C)cn3)no2)C(C)C)cc1 [Compound B60, (2S,4R)-1-(2-(3-(2-(4-(4-chloro-7,7-dimethyl-5-oxo-5,7-dihydroindolo[1,2-a]quinazolin-10-yl)-1H-pyrazol-1-yl)ethoxy)isoxazol-5-yl)-3-methylbutanoyl)-4-hydroxy-N-((S)-1-(4-(4-methylthiazol-5-yl)phenyl)ethyl)pyrrolidine-2-carboxamide] | < 0.1 µM | < 50% | < 0.1 µM | < 50% |  |  |
| Cc1ncsc1-c1ccc([C@H](C)NC(=O)[C@@H]2C[C@@H](O)CN2C(=O)C(c2cc(CN3CCC(c4ccc5c(c4)-n4c(nc(=O)c6c(Cl)cccc64)C5(C)C)CC3)no2)C(C)C)cc1 (stereo partly drawn) [Compound B62, (2S,4R)-1-(2-(3-((4-(4-chloro-7,7-dimethyl-5-oxo-5,7-dihydroindolo[1,2-a]quinazolin-10-yl)piperidin-1-yl)methyl)isoxazol-5-yl)-3-methylbutanoyl)-4-hydroxy-N-((S)-1-(4-(4-methylthiazol-5-yl)phenyl)ethyl)pyrrolidine-2-carboxamide] | < 0.1 µM | 50 to 69% | > 1 µM | < 50% |  |  |
| Cc1ncsc1-c1ccc([C@H](C)NC(=O)[C@@H]2C[C@@H](O)CN2C(=O)[C@@H](NC(=O)CC2CCC(N3CCC(c4ccc5c(c4)-n4c(nc(=O)c6c(Cl)cccc64)C5(C)C)CC3)CC2)C(C)(C)C)cc1 (stereo partly drawn) [Compound B63, (2S,4R)-1-((S)-2-(2-(4-(4-(4-chloro-7,7-dimethyl-5-oxo-5,7-dihydroindolo[1,2-a]quinazolin-10-yl)piperidin-1-yl)cyclohexyl)acetamido)-3,3-dimethylbutanoyl)-4-hydroxy-N-((S)-1-(4-(4-methylthiazol-5-yl)phenyl)ethyl)pyrrolidine-2-carboxamide] | < 0.1 µM | > 90% | 0.1 to 0.5 µM | < 50% |  |  |

Results, then the compound that gave them:

| DC50 (SMARCA2; HT1080 CRISPR knock-in cells) | Dmax (SMARCA2) | DC50 (SMARCA4; HT1080 CRISPR knock-in cells) | Dmax (SMARCA4) | SMARC A2 HT1080 HiBit Dmax (%) (SMARCA2; HT1080 CRISPR knock-in cells) | SMARC A4 HT1080 HiBit Dmax(%) (SMARCA4; HT1080 CRISPR knock-in cells) | SMILES |
| --- | --- | --- | --- | --- | --- | --- |
| 0.1 to 0.5 µM | < 50% | > 1 µM | < 50% |  |  | Cc1ncsc1-c1ccc([C@H](CCCCCn2cc(-c3ccc4c(c3)C(C)(C)c3nc(=O)c5c(Cl)cccc5n3-4)cn2)NC(=O)[C@@H]2C[C@@H](O)CN2C(=O)[C@@H](NC(=O)C2(F)CC2)C(C)(C)C)cc1 [Compound B56, (2S,4R)—N—((S)-6-(4-(4-chloro-7,7-dimethyl-5-oxo-5,7-dihydroindolo[1,2-a]quinazolin-9-yl)-1H-pyrazol-1-yl)-1-(4-(4-methylthiazol-5-yl)phenyl)hexyl)-1-((S)-2-(1-fluorocyclopropane-1-carboxamido)-3,3-dimethylbutanoyl)-4-hydroxypyrrolidine-2-carboxamide] |
| 0.1 to 0.5 µM | 70 to 90% | 0.501 to 1 µM | < 50% |  |  | Cc1ncsc1-c1ccc([C@H](C)NC(=O)[C@@H]2C[C@@H](O)CN2C(=O)[C@H](C(C)C)n2cc(OCCN3CCC(c4ccc5c(c4)C(C)(C)c4nc(=O)c6c(Cl)cccc6n4-5)CC3)cn2)cc1 [Compound B57, (2S,4R)-1-(2-(4-(2-(4-(4-chloro-7,7-dimethyl-5-oxo-5,7-dihydroindolo[1,2-a]quinazolin-9-yl)piperidin-1-yl)ethoxy)-1H-pyrazol-1-yl)-3-methylbutanoyl)-4-hydroxy-N—((S)-1-(4-(4-methylthiazol-5-yl)phenyl)ethyl)pyrrolidine-2-carboxamide] |
| 0.1 to 0.5 µM | 50 to 69% | > 1 µM | < 50% |  |  | CNC(=O)[C@@H]1C[C@@H](O)CN1C(=O)[C@H](C(C)C)n1cc([C@H]2CC[C@H](CN3CCC(c4ccc5c(c4)-n4c(nc(=O)c6c(Cl)cccc64)C5(C)C)CC3)CC2)nn1 [Compound B59, (2S,4R)-1-((S)-2-(4-((1r,4S)-4-((4-(4-chloro-7,7-dimethyl-5-oxo-5,7-dihydroindolo[1,2-a]quinazolin-10-yl)piperidin-1-yl)methyl)cyclohexyl)-1H-1,2,3-triazol-1-yl)-3-methylbutanoyl)-4-hydroxy-N-methylpyrrolidine-2-carboxamide] |
| < 0.1 µM | > 90% | < 0.1 µM | 70 to 90% |  |  | Cc1ncsc1-c1ccc([C@H](C)NC(=O)[C@@H]2C[C@@H](O)CN2C(=O)[C@H](C(C)C)n2cc(CCCCCN3CCC(c4ccc5c(c4)-n4c(nc(=O)c6c(Cl)cccc64)C5(C)C)CC3)nn2)cc1 [Compound B61, (2S,4R)-1-((S)-2-(4-(5-(4-(4-chloro-7,7-dimethyl-5-oxo-5,7-dihydroindolo[1,2-a]quinazolin-10-yl)piperidin-1-yl)pentyl)-1H-1,2,3-triazol-1-yl)-3-methylbutanoyl)-4-hydroxy-N-((S)-1-(4-(4-methylthiazol-5-yl)phenyl)ethyl)pyrrolidine-2-carboxamide] |
